Consider 17 molecules from patent US10041937B2, “Macrophage identification agent, and identification method, sorting method, evaluation method, screening method and kit using the macrophage identifier agent” (CANON KABUSHIKI KAISHA, priority 2013, dated 2018).

The subject of this experiment is M1 macrophages and M2 macrophages differentiated from mouse bone marrow cells. Description: Subtype identification by staining and flow cytometry of M1 and M2 macrophages differentiated from mouse bone marrow cells. The format is cell-based, Balb/c mouse. Conditions: for subtype more strongly stained: two compounds used in combination, each 1 μM. As to the method:
The culture of subtypes was performed according to a protocol described in NPL 7. Specifically, bone marrow cells collected from the femur of a Balb/c mouse of 8 to 10 weeks old were dispersed to a concentration of 1×10^6/mL in an IMDM containing 20% FBS and 1% P/S, and 1×10^7 cells were seeded in a 100 mm dish. After further adding an M-CSF (manufactured by Pepro Tech) thereto to a concentration of 50 ng/mL, the cells were incubated for 3 to 4 days in the presence of 5% CO2 at 37° C., so as to differentiate macrophage precursor cells to macrophages. After exchanging the medium, the M-CSF was added to a concentration of 50 ng/mL, and the incubation was performed for further 3 to 4 days in the presence of 5% CO2 at 37° C., and then, the resulting cells were differentiated to macrophage. By adding 200 ng of interferon-γ and 1 μg of […] (both manufactured by Pepro Tech) to the IMDM containing 5% FBS and 1% P/S, the cells were differentiated to the subtype M1. Besides, by adding 100 ng of IL-4 to the IMDM containing 5% FBS and 1% P/S, the cells were differentiated to the subtype M2. After performing the incubation for further 3 days in the presence of 5% CO2 at 37° C., the resultant was rinsed with PBS, and PBS containing 0.25% trypsin and 1 mM EDTA (ethylenediaminetetraacetic acid) was used for collecting, from the dish, the macrophages having been differentiated to the subtypes M1 and M2.
Thereafter, the tube was centrifuged at 180 G for 10 minutes to remove the supernatant, a dye for identifying dead cells (aqua fluorescent reactive dye, manufactured by Invitrogen; which is hereinafter sometimes abbreviated as aqua) was added thereto, and the resultant was incubated at 4° C. for 10 minutes. Subsequently, the tube was centrifuged at 180 G for 10 minutes to remove the supernatant, cells were suspended in a FACS buffer to be analyzed by using FACSCanto (trademark) II flow cytometry apparatus manufactured by BD.
The analysis was performed on a cell population showing a low signal for the aqua, so as to analyze a cell population from which dead cells were eliminated. […] A histogram was prepared by plotting fluorescence intensity obtained in the FITC channel on the abscissa and plotting the number of cells at each fluorescence intensity on the ordinate, which is shown in FIG. 2.
Histograms were prepared by plotting fluorescence intensities obtained in the respective channels on the abscissa and plotting the numbers of cells at each fluorescence intensity on the ordinate. A difference between a fluorescence intensity (FM1) at a peak top of the histogram of the M1 macrophage and a fluorescence intensity (FM2) at a peak top of the histogram of the M2 macrophage is divided by a sum of a peak width (WM1) of the histogram of the M1 macrophage and a peak width (WM2) of the histogram of the M2 macrophage, so as to obtain a resolution R, which was used as an index of the identification ability for a subtype (see the following expression (1)). Resolution R=|FM1−FM2|/(WM1+WM2) Expression (1)
In general terms: In flow cytometry, cells or beads pass a laser one at a time.

Setting [1] is: R=|FM1−FM2|/(WM1+WM2), compound 1 μM.
The mark [2] stands for this setting: fluorescence intensity at peak top of histogram, compound 1 μM, 37° C., 30 minutes.
[3] abbreviates: M1 vs M2 macrophages from mouse bone marrow cells, general formula (10) dyes (Table 8).
[4] abbreviates: class based on resolution R, general formula (10) dyes (Table 8).
Where [5] appears, read: mouse bone marrow-derived M1 macrophages, channel listed per compound, general formula (10) dyes (Table 8).
[6] abbreviates: mouse bone marrow-derived M2 macrophages, channel listed per compound, general formula (10) dyes (Table 8).
[7] abbreviates: M1 vs M2 macrophages from mouse bone marrow cells, general formula (6) dyes (Table 7).
The mark [8] stands for this setting: class based on resolution R, general formula (6) dyes (Table 7).
Where [9] appears, read: mouse bone marrow-derived M1 macrophages, channel listed per compound, general formula (6) dyes (Table 7).
[10] abbreviates: mouse bone marrow-derived M2 macrophages, channel listed per compound, general formula (6) dyes (Table 7).
Setting [11] is: M1 vs M2 macrophages from mouse bone marrow cells, general formula (11) dyes (Table 9).
Where [12] appears, read: class based on resolution R, general formula (11) dyes (Table 9).
Setting [13] is: mouse bone marrow-derived M1 macrophages, channel listed per compound, general formula (11) dyes (Table 9).
Where [14] appears, read: mouse bone marrow-derived M2 macrophages, channel listed per compound, general formula (11) dyes (Table 9).

With `CCN1C(=O)S/C(=c2/s/c(=C/c3ccc4c(c3)C3CCCC3N4Cc3ccccc3)c(=O)n2CC(=O)O)C1=O` (stereo not drawn) [(43)], the “Resolution ratio R” value under setting [1] was 0.411. Further, under setting [2], the “Peak position of M1 macrophage” value was found to be 7.14 and the “Peak position of M2 macrophage” value is 13.0. The “Evaluation of macrophage subtype identification” value (“Evaluation” below) (rated from resolution R) was “B (the compound is good in the subtype identification (namely, the resolution R is 0.15 or more and less than 0.5))”.
Turning to `CCN(CC)c1ccc2cc(-c3nc4ncccc4o3)c(=O)oc2c1` [compound (116)], the “subtype more strongly stained” value was “more strongly stain the M2 macrophages than the M1 macrophages”. Moreover, the “Resolution ratio R” value under setting [3] was 0.772. The “Evaluation” value under setting [4] is listed as “A (The compound is very good in the subtype identification (namely, the resolution R is 0.5 or more))”. Moreover, the “Peak position of M1 macrophage” value under setting [5] is recorded as 4.91. Under setting [6], the “Peak position of M2 macrophage” value is reported as 12.1.
With `O=C(O)CCN1C(=O)/C(=C\c2cc(Br)c3c(c2)C2CCCC2N3c2ccc(Br)cc2)SC1=S` (stereo not drawn) [(11)], under setting [1], the “Resolution ratio R” value was 0.544. For the same molecule, under setting [2], the “Peak position of M1 macrophage” value amounted to 30.5 and the “Peak position of M2 macrophage” value was determined as 16.2. For the same molecule, the “Evaluation” value (rated from resolution R) is given as “A (The compound is very good in the subtype identification (namely, the resolution R is 0.5 or more))”.
Consider `C=CCN1C(=O)/C(=c2\s/c(=C/c3ccc4c(c3)C3CCCC3N4Cc3ccccc3)c(=O)n2CC(=O)OCC)SC1=S` (stereo not drawn) [(52)], for which the “Resolution ratio R” value under setting [1] was 0.756. Besides, under setting [2], the “Peak position of M1 macrophage” value was found to be 3.90 and the “Peak position of M2 macrophage” value was determined as 1.68. The “Evaluation” value (rated from resolution R) was “A (The compound is very good in the subtype identification (namely, the resolution R is 0.5 or more))”.
Take `N#C/C(=C\C=C\c1ccc2c(c1)C1CCCC1N2c1ccc(C=C(c2ccccc2)c2ccccc2)cc1)C(=O)O` (stereo not drawn) [(74)]: the “Resolution ratio R” value under setting [1] turned out to be 0.538. In addition, under setting [2], the “Peak position of M1 macrophage” value is 2.52 and the “Peak position of M2 macrophage” value worked out at 1.25. Also, the “Evaluation” value (rated from resolution R) is on record as “A (The compound is very good in the subtype identification (namely, the resolution R is 0.5 or more))”.
With `CCN(CC)c1ccc2cc(-c3nc4cc(Cl)ccc4s3)c(=O)oc2c1` [(122)], under setting [3], the “Resolution ratio R” value is reported as 0.377. Also, the “Evaluation” value under setting [4] is “B (the compound is good in the subtype identification (namely, the resolution R is 0.15 or more and less than 0.5))”. Besides, the “Peak position of M1 macrophage” value under setting [5] is given as 142. The “Peak position of M2 macrophage” value under setting [6] stood at 211.
Regarding `CCN(CC)c1ccc2cc(C(=O)c3cc4ccc(N(CC)CC)cc4oc3=O)c(=O)oc2c1` [comparative compound (4), reference compound], the “Resolution ratio R” value under setting [3] was found to be 0.053. Besides, under setting [4], the “Evaluation” value is given as “C (the compound cannot identify the subtypes (namely, the resolution R is less than 0.15))”. Also, where the note is “mouse bone marrow derived”, the “difference in the staining intensity between the M1 macrophages and the M2 macrophages / identification” value is reported as “no difference in the staining intensity”. Also, the “Peak position of M1 macrophage” value under setting [5] came out at 0.88. For the same molecule, under setting [6], the “Peak position of M2 macrophage” value is 1.05. In addition, the Selectivity result (subtype strongly stained, general formula (10) dyes (Table 8)) was “No”.
Turning to `O=C(O)Cn1c(=O)/c(=C\c2ccc3c(c2)C2CCCC2N3Cc2ccccc2)s/c1=C1/SC(=S)N(Cc2ccccc2)C1=O` (stereo not drawn) [(53)], under setting [1], the “Resolution ratio R” value is 0.650. Under setting [2], the “Peak position of M1 macrophage” value was 128 and the “Peak position of M2 macrophage” value was determined as 190. The “Evaluation” value (rated from resolution R) was “A (The compound is very good in the subtype identification (namely, the resolution R is 0.5 or more))”.
In the case of `CCN1/C(=C\C=C\c2sc3ccccc3[n+]2CC)Sc2ccccc21` [(100)], the “Resolution ratio R” value under setting [7] came to 0.372. Moreover, under setting [8], the “Evaluation” value is “B (the compound is good in the subtype identification (namely, the resolution R is 0.15 or more and less than 0.5))”. Moreover, the “Peak position of M1 macrophage” value under setting [9] came out at 16.41. Besides, the “Peak position of M2 macrophage” value under setting [10] came to 32.87.
`O=C(O)CCN1C(=O)/C(=C\c2ccc3c(c2)C2CCCC2N3c2ccccc2)SC1=S` (stereo not drawn) [(13)]: under setting [1], the “Resolution ratio R” value worked out at 0.714. Under setting [2], the “Peak position of M1 macrophage” value turned out to be 7.74 and the “Peak position of M2 macrophage” value is recorded as 20.4. For the same molecule, the “Evaluation” value (rated from resolution R) is “A (The compound is very good in the subtype identification (namely, the resolution R is 0.5 or more))”.
`O=C(O)CN1C(=O)/C(=C\c2ccc3c(c2)C2CCCC2N3c2ccccc2)SC1=S` (stereo not drawn) [(24)]: the “Resolution ratio R” value under setting [1] is on record as 0.347. In addition, under setting [2], the “Peak position of M1 macrophage” value turned out to be 18.1 and the “Peak position of M2 macrophage” value is 27.6. In addition, where the note is “rated from resolution R”, the “Evaluation” value is “B (the compound is good in the subtype identification (namely, the resolution R is 0.15 or more and less than 0.5))”.
In the case of `COC(=O)COc1ccc(/C=C/C2=[N+]3C(=Cc4ccc(-c5cccs5)n4[B-]3(F)F)C=C2)cc1` [compound (161)], the “subtype more strongly stained” value was “the M1 macrophages show higher fluorescence intensity in the APC channel than the M2 macrophages”. Also, the “Resolution ratio R” value under setting [11] is given as 0.582. Besides, the “Evaluation” value under setting [12] is on record as “A (The compound is very good in the subtype identification (namely, the resolution R is 0.5 or more))”. Further, under setting [13], the “Peak position of M1 macrophage” value turned out to be 38.4. Under setting [14], the “Peak position of M2 macrophage” value came to 9.02.
For the molecule `CC1(C)C(/C=C/C=C/C=C/C=C2\N(CCCCS(=O)(=O)[O-])c3ccccc3C2(C)C)=[N+](CCCCS(=O)(=O)[O-])c2ccccc21.[Na+]` [(90)], under setting [7], the “Resolution ratio R” value is 0.321. Further, the “Evaluation” value under setting [8] was “B (the compound is good in the subtype identification (namely, the resolution R is 0.15 or more and less than 0.5))”. Also, under setting [9], the “Peak position of M1 macrophage” value came out at 0.86. Besides, the “Peak position of M2 macrophage” value under setting [10] is 1.31.
In the case of `CC1(C)C(/C=C/c2ccc3c(c2)C2CCCC2N3c2ccc(C=C(c3ccccc3)c3ccccc3)cc2)=[N+](CCC(=O)O)c2ccccc21` (stereo not drawn) [(59)], the “Resolution ratio R” value under setting [1] came to 0.733. In addition, under setting [2], the “Peak position of M1 macrophage” value amounted to 188 and the “Peak position of M2 macrophage” value worked out at 325. The “Evaluation” value (rated from resolution R) is “A (The compound is very good in the subtype identification (namely, the resolution R is 0.5 or more))”.
Consider `O=C(O)Cn1c(=O)/c(=C\c2ccc3c(c2)C2CCCC2N3c2ccc(C=C(c3ccccc3)c3ccccc3)cc2)s/c1=C1/CC(=S)N(Cc2ccccc2)C1=O` (stereo not drawn) [(20)], for which the “Resolution ratio R” value under setting [1] is given as 0.290. In addition, under setting [2], the “Peak position of M1 macrophage” value worked out at 4.47 and the “Peak position of M2 macrophage” value stood at 2.10. Besides, the “Evaluation” value (rated from resolution R) is “B (the compound is good in the subtype identification (namely, the resolution R is 0.15 or more and less than 0.5))”.
With `CC1=NN(c2ccc(C(=O)O)cc2)C(=O)/C1=C\c1ccc2c(c1)C1CCCC1N2c1ccccc1` (stereo not drawn) [(35)], the “Resolution ratio R” value under setting [1] stood at 0.192. In addition, under setting [2], the “Peak position of M1 macrophage” value was 1.15 and the “Peak position of M2 macrophage” value amounted to 1.29. Further, the “Evaluation” value (rated from resolution R) is “B (the compound is good in the subtype identification (namely, the resolution R is 0.15 or more and less than 0.5))”.
For `CC1=C(S(=O)(=O)O)C(C)=[N+]2C1=C(C)c1c(C)c(S(=O)(=O)O)c(C)n1[B-]2(F)F` [(165)], the “Resolution ratio R” value under setting [11] was 0.183. The “Evaluation” value under setting [12] was “B (the compound is good in the subtype identification (namely, the resolution R is 0.15 or more and less than 0.5))”. Also, the “Peak position of M1 macrophage” value under setting [13] is 1.25. The “Peak position of M2 macrophage” value under setting [14] is recorded as 2.00.
